Test results reported in PubChem BioAssay AID2060337 (Molecular Pharmacology Branch, DTP, NCI, 2025).

Tested on: 832693-133-R-J1-PDC multi-cell spheroids, viability
Test: Anticancer human tumor 832693-133-R-J1-PDC patient-derived head and neck squamous carcinoma cell line growth inhibition [IpAb]
Details: for IC50: curve of first compound; for viability, T/C: stronger effect = lower value
Description: Combinatorial screen of targeted agents with ipatasertib and abemaciclib in multi-cell type tumor spheroids
A high-throughput screen of multi-cell type tumor spheroids was designed to identify active combinations of targeted small molecules and ipatasertib or abemaciclib. Complex spheroids include a stromal component modeled by human endothelial cells (HUVEC) and fibroblasts modeled by human mesenchymal stem cells (MSCs). The concentration ranges selected for each drug and investigational agent were based upon clinically achievable concentrations if the clinical Cmax of the agent was known.
Compounds. The drugs and investigational agents: ipatasertib (NSC767898), abemaciclib(NSC768073), selumetinib (NSC741078), trametinib (758246), adavosertib (NSC754352), everolimus (NSC733504), sapanisertib (NSC764658), vemurafenib (NSC761431), venetoclax (NSC766270), copanlisib (NSC809693), apelisib (NSC765974), palbociblib (NSC758247), vemurafenib (NSC761431), dabrafenib (NSC764134), ravoxertinib (NSC781343), BMS-387032 (NSC767048), sotorasib (NSC818433), talazoparib (NSC767125) and afursertib (NSC778305), were obtained from the National Cancer Institute (NCI) Developmental Therapeutics Program Chemical Repository. The FDA-approved anticancer drug set is available from the NCI Developmental Therapeutics Program. […] The stock solutions were prepared in dimethyl sulfoxide (DMSO, Sigma-Aldrich, St. Louis, MO, cat. D2650) at 800-fold the tested concentration and stored at -70 degrees C prior to their use. All drugs and investigational agents were tested over a range starting from a high concentration at or near the clinical Cmax and decreasing in half-log increments. If the clinical Cmax for an agent had not been determined, the highest concentration tested was 10 microM.
NCI60 Cell Culture. NCI60 cell lines were obtained from the NCI Developmental Therapeutics Program Tumor Repository. For each lot of cells, the Repository performed Applied Biosystems AmpFLSTR Identifiler testing with PCR amplification to confirm consistency with the published Identifier STR profile for each cell line. Cells were kept in continuous culture for no more than 20 passages. The optimal seeding densities for each of the cell lines at each time point assessed were determined prior to performing the concentration response studies. Briefly, the NCI60 human tumor lines were grown as monolayers in RPMI 1640 medium supplemented with 10% FBS and 2 mmol/L L-glutamine.
An additional 9 lines were from the NCI60 cell line panel including MDA-MB-231 breast carcinoma, MDA-MB-468 breast carcinoma, MCF7 breast carcinoma, Hs578T breast carcinoma, MALME-3M melanoma, SK-MEL-2 melanoma, SK-OV-3 ovarian carcinoma, DU-145 prostate carcinoma, PC-3 prostate carcinoma, all cell lines along with major genetic alterations are listed on Table 2. Pooled donor human umbilical vein endothelial cells (HUVEC, Lonza, cat. CC-2519) and human mesenchymal stem cells (hMSC, Lonza, cat. PT-2501) were purchased from Lonza (Walkersville, MD).
PDMR cell lines were grown in complete medium (DC medium): Dulbecco's modified Eagle's medium (DMEM)/F12 supplemented with 5% fetal bovine serum (FBS), 2 mM L-glutamine, 100 U/mL penicillin and 100 µg/ml streptomycin, 0.4 µg/ml hydrocortisone, 10 ng/ml epidermal growth factor (EGF) recombinant human protein, 24 µg/mL adenine, and 0.1 mg/mL primocin. During culture from frozen stock vials, PDMR cells were cultured in the same medium containing 10 µM Y-27632 (see Table 3). The PDCs were cultured in complete DMEM/F12 media without 10 microM Y-27632 dihydrochloride for at least two passages prior to the screen. The pooled donor HUVEC and hMSC were cultured in endothelial cell growth medium 2 (PromoCell, Heidelberg, Germany, cat. C-22011) and mesenchymal stem cell growth medium 2 (PromoCell, cat. C-28009), respectively. For all experiments, HUVEC and hMSC were used at passages </=5.
[…]

[1] = second compound 0.1 µM, first compound 0.0316 µM
[2] = second compound 0.1 µM, first compound 0.1 µM
[3] = second compound 0.1 µM, first compound 0.316 µM
[4] = second compound 0.1 µM, first compound 1 µM
[5] = second compound 0.1 µM, first compound 3.16 µM
[6] = second compound 0.1 µM, first compound 10 µM
[7] = second compound 0.316 µM, first compound 0.0316 µM
[8] = second compound 0.316 µM, first compound 0.1 µM
[9] = second compound 0.316 µM, first compound 0.316 µM
[10] = second compound 0.316 µM, first compound 1 µM
[11] = second compound 0.316 µM, first compound 3.16 µM
[12] = second compound 0.316 µM, first compound 10 µM
[13] = second compound 1 µM, first compound 0.0316 µM
[14] = second compound 1 µM, first compound 0.1 µM
[15] = second compound 1 µM, first compound 0.316 µM
[16] = second compound 1 µM, first compound 1 µM
[17] = second compound 1 µM, first compound 3.16 µM
[18] = second compound 1 µM, first compound 10 µM
[19] = second compound 3.16 µM, first compound 0.0316 µM
[20] = second compound 3.16 µM, first compound 0.1 µM
[21] = second compound 3.16 µM, first compound 0.316 µM
[22] = second compound 3.16 µM, first compound 1 µM
[23] = second compound 3.16 µM, first compound 3.16 µM
[24] = second compound 3.16 µM, first compound 10 µM
[25] = second compound 10 µM, first compound 0.0316 µM
[26] = second compound 10 µM, first compound 0.1 µM
[27] = second compound 10 µM, first compound 0.316 µM
[28] = second compound 10 µM, first compound 1 µM
[29] = second compound 10 µM, first compound 3.16 µM
[30] = second compound 10 µM, first compound 10 µM
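Further: spheroids exposed to the drugs for one week before the viability readout.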
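Wherever viability, T/C is given: 100% = DMSO vehicle control wells.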

## CC1(C)CCC(CN2CCN(c3ccc(C(=O)NS(=O)(=O)c4ccc(NCC5CCOCC5)c([N+](=O)[O-])c4)c(Oc4cnc5[nH]ccc5c4)c3)CC2)=C(c2ccc(Cl)cc2)C1 + CC(C)NCC(C(=O)N1CCN(c2ncnc3c2C(C)CC3O)CC1)c1ccc(Cl)cc1
Second compound 0.1 µM
  IC50: 9680 nM
Second compound 0.316 µM
  IC50: 4870 nM
Second compound 1 µM
  IC50: 3920 nM
Second compound 3.16 µM
  IC50: 3740 nM
Second compound 10 µM
  IC50: 3640 nM
[1]
  viability, T/C: 94.1%
[2]
  viability, T/C: 90.3%
[3]
  viability, T/C: 94.6%
[4]
  viability, T/C: 88.5%
[5]
  viability, T/C: 82.7%
[6]
  viability, T/C: 48.8%
[7]
  viability, T/C: 81.2%
[8]
  viability, T/C: 80.3%
[9]
  viability, T/C: 74.2%
[10]
  viability, T/C: 64.7%
[11]
  viability, T/C: 68.7%
[12]
  viability, T/C: 26.9%
[13]
  viability, T/C: 60.9%
[14]
  viability, T/C: 55.2%
[15]
  viability, T/C: 55.2%
[16]
  viability, T/C: 49.5%
[17]
  viability, T/C: 72.4%
[18]
  viability, T/C: 12.7%
[19]
  viability, T/C: 51.2%
[20]
  viability, T/C: 47.6%
[21]
  viability, T/C: 55.5%
[22]
  viability, T/C: 57.3%
[23]
  viability, T/C: 73.2%
[24]
  viability, T/C: 8.99%
[25]
  viability, T/C: 58.6%
[26]
  viability, T/C: 62.5%
[27]
  viability, T/C: 52.2%
[28]
  viability, T/C: 51.6%
[29]
  viability, T/C: 57.4%
[30]
  viability, T/C: 3.92%

## COc1c(OCCCN2CCOCC2)ccc2c3n(c(=NC(=O)c4cnc(N)nc4)nc12)CCN3 + CC(C)NCC(C(=O)N1CCN(c2ncnc3c2C(C)CC3O)CC1)c1ccc(Cl)cc1
Second compound 0.1 µM
  IC50: 15.4 nM
Second compound 0.316 µM
  IC50: 5.27 nM
Second compound 1 µM
  IC50: < 3.16 nM
Second compound 3.16 µM
  IC50: < 3.16 nM
Second compound 10 µM
  IC50: < 3.16 nM
Second compound 0.1 µM, first compound 0.00316 µM
  viability, T/C: 83.1%
Second compound 0.1 µM, first compound 0.01 µM
  viability, T/C: 63.4%
[1]
  viability, T/C: 27.4%
[2]
  viability, T/C: 7.23%
[3]
  viability, T/C: 4.92%
[4]
  viability, T/C: 4.02%
Second compound 0.316 µM, first compound 0.00316 µM
  viability, T/C: 59.6%
Second compound 0.316 µM, first compound 0.01 µM
  viability, T/C: 37.7%
[7]
  viability, T/C: 19.2%
[8]
  viability, T/C: 7.29%
[9]
  viability, T/C: 3.93%
[10]
  viability, T/C: 3.87%
Second compound 1 µM, first compound 0.00316 µM
  viability, T/C: 43.2%
Second compound 1 µM, first compound 0.01 µM
  viability, T/C: 20.6%
[13]
  viability, T/C: 12.7%
[14]
  viability, T/C: 6.94%
[15]
  viability, T/C: 4.52%
[16]
  viability, T/C: 3.27%
Second compound 3.16 µM, first compound 0.00316 µM
  viability, T/C: 30.5%
Second compound 3.16 µM, first compound 0.01 µM
  viability, T/C: 18.4%
[19]
  viability, T/C: 11.2%
[20]
  viability, T/C: 7.39%
[21]
  viability, T/C: 5.57%
[22]
  viability, T/C: 4.86%
Second compound 10 µM, first compound 0.00316 µM
  viability, T/C: 32.8%
Second compound 10 µM, first compound 0.01 µM
  viability, T/C: 22.8%
[25]
  viability, T/C: 14.2%
[26]
  viability, T/C: 7.94%
[27]
  viability, T/C: 5.9%
[28]
  viability, T/C: 5.91%

## Cc1nc(NC(=O)N2CCCC2C(N)=O)sc1-c1ccnc(C(C)(C)C(F)(F)F)c1 (stereo not given) + CC(C)NCC(C(=O)N1CCN(c2ncnc3c2C(C)CC3O)CC1)c1ccc(Cl)cc1
Second compound 0.1 µM
  IC50: 452 nM
Second compound 0.316 µM
  IC50: 260 nM
Second compound 1 µM
  IC50: 40.9 nM
Second compound 3.16 µM
  IC50: < 31.6 nM
Second compound 10 µM
  IC50: 45 nM
[1]
  viability, T/C: 90.3%
[2]
  viability, T/C: 78.8%
[3]
  viability, T/C: 51.3%
[4]
  viability, T/C: 41%
[5]
  viability, T/C: 14.1%
[6]
  viability, T/C: 4.68%
[7]
  viability, T/C: 77.8%
[8]
  viability, T/C: 64.2%
[9]
  viability, T/C: 49%
[10]
  viability, T/C: 23.8%
[11]
  viability, T/C: 12.8%
[12]
  viability, T/C: 3.31%
[13]
  viability, T/C: 52.2%
[14]
  viability, T/C: 41.5%
[15]
  viability, T/C: 26.8%
[16]
  viability, T/C: 16%
[17]
  viability, T/C: 9.89%
[18]
  viability, T/C: 2.93%
[19]
  viability, T/C: 46%
[20]
  viability, T/C: 32.8%
[21]
  viability, T/C: 24.4%
[22]
  viability, T/C: 16.3%
[23]
  viability, T/C: 10.7%
[24]
  viability, T/C: 3.55%
[25]
  viability, T/C: 55.6%
[26]
  viability, T/C: 38.4%
[27]
  viability, T/C: 28.6%
[28]
  viability, T/C: 19.1%
[29]
  viability, T/C: 13.3%
[30]
  viability, T/C: 3.58%
